Values joined by “and” are separate entries in the source; they are usually repeats but may differ in a detail not shown here. Equal entries are not always repeated.
Assays:
[1] = Whole-body activity measurements, tumor-bearing mice; format: in vivo, athymic nude Balb/c mice; details: 4 h p.i., 30 MBq, 1 nmol i.v., activity right after injection = 100%
Protocol: (§1) In vivo experiments were approved by the local veterinarian department and conducted in accordance with the Swiss law of animal protection. Mice were obtained from Charles River Laboratories, Sulzfeld, Germany, at the age of 5-6 weeks. Female, athymic nude Balb/c mice were subcutaneously inoculated with PSMA-positive PC-3 PIP cells (6×10^6 cells in 100 μL Hank's balanced salt solution (HBSS) with Ca^2+/Mg^2+) on the right shoulder and with PSMA-negative PC-3 flu cells (5×10^6 cells in 100 μL HBSS Ca^2+/Mg^2+) on the left shoulder. Two weeks later, the tumors reached a size of about 80-300 mm^3 suitable for the performance of the imaging studies.
The single radioligands (specific activity: 30 MBq/nmol) were diluted in 0.9% NaCl containing 0.05% bovine serum albumin (BSA) and i.v. injected into PC-3 PIP/flu tumor bearing mice (30 MBq, 1 nmol, 100 μL) for SPECT/CT imaging purposes. The mice were measured in a dose calibrator at 4 h, 24 h, 48 h and 72 h p.i., respectively.

[2] = test system: PC-3 PIP/flu tumor-bearing mice; assay: Biodistribution study in PC-3 PIP/flu tumor-bearing mice; format: in vivo, athymic nude Balb/c mice; details: for Kidneys / Tumor-to-kidney / Blood / Bone / Heart / Intestines / Liver / Lung / Muscle / Salivary glands / Spleen / Stomach / Tumor-to-blood / Tumor-to-liver: PC-3 PIP/flu tumor-bearing mice; for PC-3 flu Tumor: PSMA-negative tumor xenograft; for PC-3 flu Tumor / PC-3 PIP Tumor: mice; for PC-3 PIP Tumor: PSMA-positive tumor xenograft
Protocol: as §1, with “biodistribution” for “imaging”
Biodistribution studies were performed 12-15 days after PC-3 PIP/flu tumor cell inoculation. […] The radioligands were injected in a lateral tail vein in a volume of 100-200 μL. Mice were euthanized at different time points after injection (p.i.) of the radioligands. Selected tissues and organs were collected, weighed and measured using a γ-counter. The results were decay-corrected and listed as a percentage of the injected activity per gram of tissue mass (% IA/g) (Table 3 and 4).
Mice were obtained from Charles River Laboratories, Sulzfeld, Germany, at the age of 5-6 weeks. Female, athymic nude BALB/c mice were subcutaneously inoculated with PSMA-positive PC-3 PIP cells (6×10^6 cells in 100 μL Hank's balanced salt solution (HBSS)) on the right shoulder and with PSMA-negative PC-3 flu cells (5×10^6 cells in 100 μL HBSS) on the left shoulder. Two weeks later, the tumors reached a size of about 80-300 mm^3 suitable for the performance of the biodistribution and imaging studies.
Biodistribution studies were performed 12-15 days after PC-3 PIP/flu tumor cell inoculation. ^177Lu-Ibu-sPSMA was diluted in 0.9% NaCl containing 0.05% bovine serum albumin (BSA) to prevent adhesion to the vial and syringe material. The radioligand was injected in a lateral tail vein in a volume of 100 μL. Mice were euthanized at different time points after injection (p.i.) of the radioligand. Selected tissues and organs were collected, weighed and measured using a γ-counter. The results were decay-corrected and listed as a percentage of the injected activity per gram of tissue mass (% IA/g) (Table 6, FIG. 18).

Row | SMILES | whole-body retention of radioactivity [1] [%] | Blood ([2]; 4 h p.i.) [% IA/g] | Bone ([2]; 4 h p.i.) [% IA/g] | Heart ([2]; 4 h p.i.) [% IA/g] | Intestines ([2]; 4 h p.i.) [% IA/g] | Kidneys ([2]; 4 h p.i.) [% IA/g] | Liver ([2]; 4 h p.i.) [% IA/g] | Lung ([2]; 4 h p.i.) [% IA/g] | Muscle ([2]; 4 h p.i.) [% IA/g] | Salivary glands ([2]; 4 h p.i.) [% IA/g] | Spleen ([2]; 4 h p.i.) [% IA/g] | Stomach ([2]; 4 h p.i.) [% IA/g] | Tumor-to-blood ([2]; 4 h p.i.) | Tumor-to-kidney ([2]; 4 h p.i.) | Tumor-to-liver ([2]; 4 h p.i.) | PC-3 flu Tumor ([2]; 4 h p.i.) [% IA/g] | PC-3 PIP Tumor ([2]; 4 h p.i.) [% IA/g] | Bone ([2]; 24 h p.i.) [% IA/g] | Heart ([2]; 24 h p.i.) [% IA/g] | Intestines ([2]; 24 h p.i.) [% IA/g] | other results
1 | CC(C)Cc1ccc(C(C)C(=O)NC(CC(=O)O)C(=O)NCCCCC(NC(=O)CN2CCN(CC(=O)O)CCN(CC(=O)O)CCN(CC(=O)O)CC2)C(=O)NCC2CCC(C(=O)NC(Cc3ccc4ccccc4c3)C(=O)NCCCCC(NC(=O)NC(CCC(=O)O)C(=O)O)C(=O)O)CC2)cc1 (stereo not shown) [^177Lu-Ibu-Dα-PSMA, metal not drawn] | 29 | 2.33 ± 0.71 | 0.37 ± 0.10 | 0.89 ± 0.27 | 0.49 ± 0.08 | 27.2 ± 3.31 | 0.84 ± 0.22 | 1.54 ± 0.35 | 0.35 ± 0.08 | 0.74 ± 0.20 | 0.90 ± 0.04 | 0.25 ± 0.08 | 22.5 ± 5.28 | 1.82 ± 0.03 | 60.8 ± 11.1 | 1.00 ± 0.21 | 49.4 ± 5.33 | 0.11 ± 0.02 | 0.18 ± 0.03 | 0.11 ± 0.02 | Kidneys ([2]; 1 h p.i.): 73±2 % IA/g; Tumor-to-kidney ([2]; 1 h p.i.): 0.59±0.08; Blood ([2]; 24 h p.i.): 0.33 ± 0.06 % IA/g; Kidneys ([2]; 24 h p.i.): 18.2 ± 3.06 % IA/g; Liver ([2]; 24 h p.i.): 0.37 ± 0.04 % IA/g; Lung ([2]; 24 h p.i.): 0.39 ± 0.09 % IA/g; Muscle ([2]; 24 h p.i.): 0.07 ± 0.02 % IA/g; Salivary glands ([2]; 24 h p.i.): 0.21 ± 0.04 % IA/g; Spleen ([2]; 24 h p.i.): 0.46 ± 0.10 % IA/g; Stomach ([2]; 24 h p.i.): 0.12 ± 0.03 % IA/g; Tumor-to-blood ([2]; 24 h p.i.): 198 ± 32.6; Tumor-to-kidney ([2]; 24 h p.i.): 3.56 ± 0.34; Tumor-to-liver ([2]; 24 h p.i.): 196 and 196 ± 44.4; PC-3 flu Tumor ([2]; 24 h p.i.): 0.38 ± 0.05 % IA/g; PC-3 PIP Tumor ([2]; 24 h p.i.): 84.2±14.9 % IA/g
2 | CC(C)Cc1ccc(C(C)C(=O)NC(CC(=O)NCCCCC(NC(=O)CN2CCN(CC(=O)O)CCN(CC(=O)O)CCN(CC(=O)O)CC2)C(=O)NCC2CCC(C(=O)NC(Cc3ccc4ccccc4c3)C(=O)NCCCCC(NC(=O)NC(CCC(=O)O)C(=O)O)C(=O)O)CC2)C(=O)O)cc1 (stereo not shown) [^177Lu-Ibu-Dβ-PSMA, metal not drawn] | 49 | 13.2±1.15 | 1.87 ± 0.16 | 4.19 ± 0.23 | 1.81 ± 0.23 | 32.2 ± 2.46 | 3.87 ± 0.16 | 8.55 ± 3.30 | 1.79 ± 0.48 | 3.33 ± 0.15 | 2.60 ± 0.23 | 1.51 ± 0.18 | 5.03±0.73 | 2.06 ± 0.23 | 17.0 ± 1.73 | 3.86 ± 0.18 | 65.7 ± 7.31 | 0.26 ± 0.03 | 0.57 ± 0.02 | 0.40 ± 0.07 | Blood ([2]; 24 h p.i.): 1.28 ± 0.05 % IA/g; Kidneys ([2]; 24 h p.i.): 21.3 ± 1.53 % IA/g; Liver ([2]; 24 h p.i.): 0.69 ± 0.07 % IA/g; Lung ([2]; 24 h p.i.): 1.17 ± 0.06 % IA/g; Muscle ([2]; 24 h p.i.): 0.22 ± 0.04 % IA/g; Salivary glands ([2]; 24 h p.i.): 0.61 ± 0.02 % IA/g; Spleen ([2]; 24 h p.i.): 1.03 ± 0.08 % IA/g; Stomach ([2]; 24 h p.i.): 0.48 ± 0.13 % IA/g; Tumor-to-blood ([2]; 24 h p.i.): 83.6 ± 9.06; Tumor-to-kidney ([2]; 24 h p.i.): 4.90 ± 0.29; Tumor-to-liver ([2]; 24 h p.i.): 151 ± 3.37; PC-3 flu Tumor ([2]; 24 h p.i.): 0.79 ± 0.12 % IA/g; PC-3 PIP Tumor ([2]; 24 h p.i.): 106±9.70 % IA/g
3 | CC(C)Cc1ccc(C(C)C(=O)NC(CC(N)=O)C(=O)NCCCCC(NC(=O)CN2CCN(CC(=O)O)CCN(CC(=O)O)CCN(CC(=O)O)CC2)C(=O)NCC2CCC(C(=O)NC(Cc3ccc4ccccc4c3)C(=O)NCCCCC(NC(=O)NC(CCC(=O)O)C(=O)O)C(=O)O)CC2)cc1 (stereo not shown) [^177Lu-Ibu-N-PSMA, metal not drawn] | 12 | 3.58 ± 1.39 | 0.56 ± 0.22 | 1.23 ± 0.61 | 0.50 ± 0.18 | 27.1 ± 8.37 | 1.27 ± 0.55 | 2.20 ± 0.95 | 0.47 ± 0.19 | 0.94 ± 0.38 | 1.40 ± 0.75 | 0.51 ± 0.23 | 20.1 ± 6.22 | 2.48 ± 0.11 | 18.2 ± 2.70 | 1.15 ± 0.52 | 65.4 ± 15.6 | 0.08 ± 0.02 | 0.12 ± 0.03 | 0.09 ± 0.02 | Kidneys ([2]; 24 h p.i.): 8.02±1.13 % IA/g; Liver ([2]; 24 h p.i.): 0.32 ± 0.05 % IA/g; Lung ([2]; 24 h p.i.): 0.24 ± 0.06 % IA/g; Muscle ([2]; 24 h p.i.): 0.06 ± 0.02 % IA/g; Salivary glands ([2]; 24 h p.i.): 0.57 ± 0.35 % IA/g; Spleen ([2]; 24 h p.i.): 0.24 ± 0.06 % IA/g; Stomach ([2]; 24 h p.i.): 0.17 ± 0.09 % IA/g; Tumor-to-blood ([2]; 24 h p.i.): 227 ± 41.7; Tumor-to-kidney ([2]; 24 h p.i.): 6.90 ± 2.43; Tumor-to-liver ([2]; 24 h p.i.): 182 and 182 ± 52.6; PC-3 flu Tumor ([2]; 24 h p.i.): 0.23 ± 0.01 % IA/g; PC-3 PIP Tumor ([2]; 24 h p.i.): 58.0 ± 21.0 % IA/g
4 | CC(C)Cc1ccc(C(C)C(=O)NCCCCC(NC(=O)CN2CCN(CC(=O)O)CCN(CC(=O)O)CCN(CC(=O)O)CC2)C(=O)NCC2CCC(C(=O)NC(Cc3ccc4ccccc4c3)C(=O)NCCCCC(NC(=O)NC(CCC(=O)O)C(=O)O)C(=O)O)CC2)cc1 (stereo not shown) [^177Lu-Ibu-PSMA, metal not drawn] | 33 | 5.96 ± 1.53 | 1.01 ± 0.18 | 2.28 ± 0.68 | 1.00 ± 0.27 | 32.5 ± 0.86 | 2.77 ± 0.43 | 3.72 ± 0.73 | 0.97 ± 0.37 | 1.66 ± 0.36 | 1.76 ± 0.23 | 0.79 ± 0.26 | 14.1 ± 2.25 | 2.60 ± 0.08 | 29.7 ± 3.11 | 2.19 ± 0.52 | 81.3±6.28 | 0.20 ± 0.04 | 0.33 ± 0.06 | 0.23 ± 0.04 | Blood ([2]; 24 h p.i.): 0.58 ± 0.09 % IA/g; Kidneys ([2]; 24 h p.i.): 16.5 ± 1.48 % IA/g; Liver ([2]; 24 h p.i.): 0.91 ± 0.12 % IA/g; Lung ([2]; 24 h p.i.): 0.62 ± 0.12 % IA/g; Muscle ([2]; 24 h p.i.): 0.12 ± 0.04 % IA/g; Salivary glands ([2]; 24 h p.i.): 0.34 ± 0.07 % IA/g; Spleen ([2]; 24 h p.i.): 0.68 ± 0.15 % IA/g; Stomach ([2]; 24 h p.i.): 0.23 ± 0.02 % IA/g; Tumor-to-blood ([2]; 24 h p.i.): 149 ± 16.7; Tumor-to-kidney ([2]; 24 h p.i.): 5.36 ± 0.73; Tumor-to-liver ([2]; 24 h p.i.): 95.4 ± 10.6; PC-3 flu Tumor ([2]; 24 h p.i.): 0.58 ± 0.19 % IA/g; PC-3 PIP Tumor ([2]; 24 h p.i.): 86.8±18.0 % IA/g and 86.9 ± 18.0 % IA/g

From patent US20220024882A1, “NOVEL TUMOR ANTIGEN BINDING AGENTS AND USES THEREOF” (ITM Isotopen Technologien München AG, priority 2018, published 2022)
